Species: Rattus norvegicus
Test: DrugMatrix - Regimen: Daily Repeat
Format: toxicity, organism-based, Sprague-Dawley
Parameters: regimen Daily Repeat, gender Male, age 6-8 weeks
Conditions: in vivo, po, route oral GAVAGE, vehicle 100 % WATER; for ABSOLUTE BASOPHIL / ABSOLUTE EOSINOPHIL / ABSOLUTE LYMPHOCYTE / ABSOLUTE MONOCYTE / ABSOLUTE SEGMENTED NEUTROPHIL / BASOPHIL / EOSINOPHIL / ERYTHROCYTE COUNT / HEMATOCRIT / HEMOGLOBIN / LEUKOCYTE COUNT / LYMPHOCYTE / MEAN CORPUSCULAR HEMOGLOBIN / MEAN CORPUSCULAR HEMOGLOBIN CONCENTRATION / MEAN CORPUSCULAR VOLUME / MONOCYTE / NEUTROPHIL / NUCLEATED RED BLOOD CELLS / PLATELET COUNT: tissue Blood; for ALANINE AMINOTRANSFERASE / ALBUMIN / ALKALINE PHOSPHATASE / ASPARTATE AMINOTRANSFERASE / BLOOD UREA NITROGEN / CARBON DIOXIDE / CHLORIDE / CHOLESTEROL / CREATINE PHOSPHOKINASE / CREATININE / GLUCOSE / LACTATE DEHYDROGENASE / LIPASE / PHOSPHORUS / POTASSIUM / SODIUM / TOTAL BILIRUBIN / TOTAL PROTEIN / URIC ACID: tissue Plasma
[1] = 30 mg/kg, 72 h, dose level Low, time 3 day
[2] = 30 mg/kg, 120 h, dose level Low, time 5 day
[3] = 3000 mg/kg, 72 h, dose level High, time 3 day
[4] = 3000 mg/kg, 120 h, dose level High, time 5 day

SMILES: O=C(O)CC(O)(CC(=O)O)C(=O)O [CITRIC ACID]
- ABSOLUTE BASOPHIL [1]: 0 CELLS/uL
- ABSOLUTE EOSINOPHIL [1]: 0 CELLS/uL
- ABSOLUTE LYMPHOCYTE [1]: 12691.33 CELLS/uL
- ABSOLUTE MONOCYTE [1]: 367.33 CELLS/uL
- ABSOLUTE SEGMENTED NEUTROPHIL [1]: 908 CELLS/uL
- BASOPHIL [1]: 0%
- EOSINOPHIL [1]: 0%
- ERYTHROCYTE COUNT [1]: 5.83 x10E6/uL
- HEMATOCRIT [1]: 37%
- HEMOGLOBIN [1]: 14.67 G/DL
- LEUKOCYTE COUNT [1]: 13.97 x10E3/uL
- LYMPHOCYTE [1]: 91%
- MEAN CORPUSCULAR HEMOGLOBIN [1]: 25.17 pg
- MEAN CORPUSCULAR HEMOGLOBIN CONCENTRATION [1]: 39.67 G/DL
- MEAN CORPUSCULAR VOLUME [1]: 63.43 fL
- MONOCYTE [1]: 2.67%
- NEUTROPHIL [1]: 6.33%
- NUCLEATED RED BLOOD CELLS [1]: 0 /100WBC
- PLATELET COUNT [1]: 1121.33 x10E3/uL
- ALANINE AMINOTRANSFERASE [1]: 54.67 u/L
- ALBUMIN [1]: 4.2 G/DL
- ALKALINE PHOSPHATASE [1]: 442.33 u/L
- ASPARTATE AMINOTRANSFERASE [1]: 93.33 u/L
- BLOOD UREA NITROGEN [1]: 13.33 mg/dL
- CARBON DIOXIDE [1]: 23 mmol/L
- CHLORIDE [1]: 102.33 MEQ/L
- CHOLESTEROL [1]: 85.67 mg/dL
- CREATINE PHOSPHOKINASE [1]: 514.33 u/L
- CREATININE [1]: 0.18 mg/dL
- GLUCOSE [1]: 184.33 mg/dL
- LACTATE DEHYDROGENASE [1]: 173 u/L
- LIPASE [1]: 9.67 u/L
- PHOSPHORUS [1]: 12.77 mg/dL
- POTASSIUM [1]: 6.46 MEQ/L
- SODIUM [1]: 146.53 MEQ/L
- TOTAL BILIRUBIN [1]: 0.2 mg/dL
- TOTAL PROTEIN [1]: 5.97 G/DL
- URIC ACID [1]: 2.5 mg/dL
- ABSOLUTE BASOPHIL [2]: 0 CELLS/uL
- ABSOLUTE EOSINOPHIL [2]: 0 CELLS/uL
- ABSOLUTE LYMPHOCYTE [2]: 16594.33 CELLS/uL
- ABSOLUTE MONOCYTE [2]: 186.67 CELLS/uL
- ABSOLUTE SEGMENTED NEUTROPHIL [2]: 1885.67 CELLS/uL
- BASOPHIL [2]: 0%
- EOSINOPHIL [2]: 0%
- ERYTHROCYTE COUNT [2]: 5.64 x10E6/uL
- HEMATOCRIT [2]: 37.07%
- HEMOGLOBIN [2]: 14.63 G/DL
- LEUKOCYTE COUNT [2]: 18.67 x10E3/uL
- LYMPHOCYTE [2]: 88.67%
- MEAN CORPUSCULAR HEMOGLOBIN [2]: 25.97 pg
- MEAN CORPUSCULAR HEMOGLOBIN CONCENTRATION [2]: 39.47 G/DL
- MEAN CORPUSCULAR VOLUME [2]: 65.7 fL
- MONOCYTE [2]: 1%
- NEUTROPHIL [2]: 10.33%
- NUCLEATED RED BLOOD CELLS [2]: 0 /100WBC
- PLATELET COUNT [2]: 1295.33 x10E3/uL
- ALANINE AMINOTRANSFERASE [2]: 48 u/L
- ALBUMIN [2]: 4.2 G/DL
- ALKALINE PHOSPHATASE [2]: 374.67 u/L
- ASPARTATE AMINOTRANSFERASE [2]: 80.67 u/L
- BLOOD UREA NITROGEN [2]: 18 mg/dL
- CARBON DIOXIDE [2]: 23 mmol/L
- CHLORIDE [2]: 103.67 MEQ/L
- CHOLESTEROL [2]: 77 mg/dL
- CREATINE PHOSPHOKINASE [2]: 316.33 u/L
- CREATININE [2]: 0.18 mg/dL
- GLUCOSE [2]: 154.33 mg/dL
- LACTATE DEHYDROGENASE [2]: 396.33 u/L
- LIPASE [2]: 10.33 u/L
- PHOSPHORUS [2]: 13.53 mg/dL
- POTASSIUM [2]: 6.74 MEQ/L
- SODIUM [2]: 147.27 MEQ/L
- TOTAL BILIRUBIN [2]: 0.2 mg/dL
- TOTAL PROTEIN [2]: 6.03 G/DL
- URIC ACID [2]: 1.4 mg/dL
- ABSOLUTE BASOPHIL [3]: 0 CELLS/uL
- ABSOLUTE EOSINOPHIL [3]: 0 CELLS/uL
- ABSOLUTE LYMPHOCYTE [3]: 12922.33 CELLS/uL
- ABSOLUTE MONOCYTE [3]: 727.33 CELLS/uL
- ABSOLUTE SEGMENTED NEUTROPHIL [3]: 1850.33 CELLS/uL
- BASOPHIL [3]: 0%
- EOSINOPHIL [3]: 0%
- ERYTHROCYTE COUNT [3]: 5.42 x10E6/uL
- HEMATOCRIT [3]: 33.17%
- HEMOGLOBIN [3]: 13.3 G/DL
- LEUKOCYTE COUNT [3]: 15.5 x10E3/uL
- LYMPHOCYTE [3]: 83.67%
- MEAN CORPUSCULAR HEMOGLOBIN [3]: 24.53 pg
- MEAN CORPUSCULAR HEMOGLOBIN CONCENTRATION [3]: 40.1 G/DL
- MEAN CORPUSCULAR VOLUME [3]: 61.2 fL
- MONOCYTE [3]: 4.67%
- NEUTROPHIL [3]: 11.67%
- NUCLEATED RED BLOOD CELLS [3]: 0 /100WBC
- PLATELET COUNT [3]: 1290.67 x10E3/uL
- ALANINE AMINOTRANSFERASE [3]: 49.67 u/L
- ALBUMIN [3]: 4.17 G/DL
- ALKALINE PHOSPHATASE [3]: 428.33 u/L
- ASPARTATE AMINOTRANSFERASE [3]: 78.33 u/L
- BLOOD UREA NITROGEN [3]: 15.67 mg/dL
- CARBON DIOXIDE [3]: 26.67 mmol/L
- CHLORIDE [3]: 103 MEQ/L
- CHOLESTEROL [3]: 70.33 mg/dL
- CREATINE PHOSPHOKINASE [3]: 223 u/L
- CREATININE [3]: 0.2 mg/dL
- GLUCOSE [3]: 155 mg/dL
- LACTATE DEHYDROGENASE [3]: 102.33 u/L
- LIPASE [3]: 9.67 u/L
- PHOSPHORUS [3]: 12.67 mg/dL
- POTASSIUM [3]: 6.48 MEQ/L
- SODIUM [3]: 145.77 MEQ/L
- TOTAL BILIRUBIN [3]: 0.2 mg/dL
- TOTAL PROTEIN [3]: 5.53 G/DL
- URIC ACID [3]: 1.37 mg/dL
- ABSOLUTE BASOPHIL [4]: 0 CELLS/uL
- ABSOLUTE EOSINOPHIL [4]: 62.33 CELLS/uL
- ABSOLUTE LYMPHOCYTE [4]: 16836 CELLS/uL
- ABSOLUTE MONOCYTE [4]: 0 CELLS/uL
- ABSOLUTE SEGMENTED NEUTROPHIL [4]: 2301.67 CELLS/uL
- BASOPHIL [4]: 0%
- EOSINOPHIL [4]: 0.33%
- ERYTHROCYTE COUNT [4]: 5.65 x10E6/uL
- HEMATOCRIT [4]: 36.43%
- HEMOGLOBIN [4]: 14.37 G/DL
- LEUKOCYTE COUNT [4]: 19.2 x10E3/uL
- LYMPHOCYTE [4]: 87.67%
- MEAN CORPUSCULAR HEMOGLOBIN [4]: 25.5 pg
- MEAN CORPUSCULAR HEMOGLOBIN CONCENTRATION [4]: 39.47 G/DL
- MEAN CORPUSCULAR VOLUME [4]: 64.63 fL
- MONOCYTE [4]: 0%
- NEUTROPHIL [4]: 12%
- NUCLEATED RED BLOOD CELLS [4]: 1 /100WBC
- PLATELET COUNT [4]: 1284.33 x10E3/uL
- ALANINE AMINOTRANSFERASE [4]: 50 u/L
- ALBUMIN [4]: 4.2 G/DL
- ALKALINE PHOSPHATASE [4]: 416.67 u/L
- ASPARTATE AMINOTRANSFERASE [4]: 71.67 u/L
- BLOOD UREA NITROGEN [4]: 16.67 mg/dL
- CARBON DIOXIDE [4]: 23.67 mmol/L
- CHLORIDE [4]: 102 MEQ/L
- CHOLESTEROL [4]: 77 mg/dL
- CREATINE PHOSPHOKINASE [4]: 254.67 u/L
- CREATININE [4]: 0.2 mg/dL
- GLUCOSE [4]: 151 mg/dL
- LACTATE DEHYDROGENASE [4]: 91.33 u/L
- LIPASE [4]: 10.33 u/L
- PHOSPHORUS [4]: 13.03 mg/dL
- POTASSIUM [4]: 6.54 MEQ/L
- SODIUM [4]: 144.77 MEQ/L
- TOTAL BILIRUBIN [4]: 0.23 mg/dL
- TOTAL PROTEIN [4]: 5.93 G/DL
- URIC ACID [4]: 1.57 mg/dL
